# Measured values from patent US4898870A, “Pyrroloquinoline quinone compounds useful as an enzyme inhibitor” (Sogo Pharmaceutical Company Limited, priority 1986, dated 1990).
# Key:
# [1] = tested on: egg cataract induced by hydrocortisone; experiment: Egg cataract induced by hydrocortisone; type: in vivo, White-leghorn eggs
# Protocol: White-leghorn eggs were incubated in a hatcher held at a temperature of 37° C. and a relative humidity of about 70%.
# To the control and drug-administered groups, was administered at the air space 0.2 ml each of a solution of 0.12 mg hydrocortisone succinate (HC) in pure water on the 15th day after the start of incubation.
# To the drug-administered group, was further injected PQQ 2 hours, or 2 and 5 hours, after HC administration.
# The lens was extracted from each egg 48 hours after HC administration, and cataract estimation was made by the method of Nishigohri et al. [INVESTIGATIVE OPHTHALMOLOGY & VISUAL SCIENCE, 25, 1051 (1984)] according to the following standards: […]
# [2] = tested on: chick lens aldose reductase; experiment: Inhibition of chick lens aldose reductase; type: biochemical; details: for concentration inhibiting the activity by 100%: chick lens; for IC50: chick lens homogenate, read-out: concentration inhibiting the aldose reductase activity by 50%
# Protocol: The activity of aldose reductase was measured according to the method of Kinoshita et al. [Metabolism, 28, 462-469 (1979)] using a homogenate of chick lens.
# (§1) To a reaction solution containing the chick lens homogenate, Li2 SO4, NADPH2 and an inhibitor, was added dlglyceraldehyde as substrate to start the reaction, and the enzymatic activity was determined by measuring the decrease in optical density (OD) of NADPH2 at 340 nm after five minutes. A solution with no substrate added was used for the blank test. The inhibition rate against the aldose reductase reaction was calculated from the following equation: [formula]
# An enzyme solution was prepared from chick lens in the same manner as in Test Example 4, and the inhibitory action of PQQ·H2 against aldose reductase was measured in the same way as in Test Example 4.
# An enzyme solution was prepared from chick lens in the same manner as in Test Example 4, and the inhibitory action of PQQ·3Me against aldose reductase was measured in the same way as in Test Example 4.
# [3] = biological target: T1, bovine lens aldose reductase (Bos taurus, UniProt P16116); experiment: Inhibition of bovine lens aldose reductase; type: biochemical; details: for IC50: bovine lens enzyme; for IC100: bovine lens, read-out: concentration inhibiting the activity by 100%; for inhibition at 10 µM: inhibitor 10^-5 M/reaction soln.; for inhibition at 1 µM: inhibitor 10^-6 M/reaction soln.; for inhibition at 0.1 µM: inhibitor 10^-7 M/reaction soln.
# T1 construct: A homogenate of bovine lens was centrifuged for ten minutes at 20,000 rpm under cooling; from tissue; host or cells: bovine lens (20,000 rpm supernatant of homogenate)
# Protocol: (§2) Specifically reaction was started by adding dl-glyceraldehyde as a substrate to a reaction solution containing rat lens homogenate, Li2 SO4, NADPH2 and inhibitor, and the enzyme activity was measured by the decrease of the optical absorption of NADPH2 (optical density: OD) at 340 nm for 5 min. The solution with no addition of the substrate was used for the blank OD. The inhibiting ratio for the aldose reductase reaction by the inhibitor was determined by the following equation: [formula]
# The determination of enzyme activity was same as in Test Example 1 except enzyme source was bovine lens.
# as §1
# A homogenate of bovine lens was centrifuged for ten minutes at 20,000 rpm under cooling, the supernatant was collected as an enzyme solution, and the inhibitory action of PQQ against aldose reductase was measured in the same way as in Test Example 4.
# A homogenate of bovine lens was centrifuged for ten minutes at 20,000 rpm under cooling, the supernatant was collected as an enzyme solution, and the inhibitory action of PQQ·H2 against bovine lens aldose reductase was measured in the same way as in Test Example 4.
# An enzyme solution was prepared from chick lens in the same manner as in Test Example 9, and the inhibitory action of PQQ·3Me against bovine lens aldose reductase was measured in the same way as in Test Example 4.
# [4] = tested on: galactose-induced cataract; experiment: Galactose-induced cataract in rats; type: in vivo, Sprague-Dawley rats; details: for cataract estimation: number at Grade A^- / cataract estimation: number at Grade A^0: 50% galactose feed; for cataract estimation: number at Grade A^-: 7th day; for cataract estimation: number at Grade A^0: 10th day
# Protocol: Male, Sprague-Dawley rats weighing 55 to 65 grams were used as test animals in this experiment. These were divided into three groups (normal group, 50%-galactose feed group, and drug-administered group). The normal group was given a commercial powdery feed (CE-2 of Clea Japan Inc.), and the other two groups were given the above normal feed further containing 50% galactose, with free access thereto in all cases. To the drug-administered group, was further administered PQQ orally (30 mg/Kg) or intraperitonealy (20 mg/Kg) once a day throughout the course of test. The lens was extracted from the test animals on the 7th and 10th days after the start of experiment, and cataract estimation was made according to the following standards: […]
# [5] = biological target: T2, human placental aldose reductase (Homo sapiens, UniProt P15121); experiment: Inhibition of human placental aldose reductase; type: biochemical
# T2 construct: An enzyme solution was prepared from human placenta; from tissue; host or cells: human placenta
# Protocol: as §2
# The determination of enzyme activity was same as in Test Example 1 except enzyme source was human placenta.
# as §1
# An enzyme solution was prepared from human placenta, and the inhibitory action of PQQ·2K against human placental aldose reductase was measured in the same way as in Test Example 4.
# An enzyme solution was prepared from human placenta, and the inhibitory action of PQQ·3Me against human placental aldose reductase was measured in the same way as in Test Example 4.
# An enzyme solution was prepared from human placenta, and the inhibitory action of PQQ·2Me.Et against human placental aldose reductase was measured in the same way as in Test Example 4.
# [6] = biological target: T3, rat lens aldose reductase (Rattus norvegicus, UniProt P07943); experiment: Inhibition of rat lens aldose reductase (NADPH2 OD decrease at 340 nm); type: biochemical
# T3 construct: A homogenate of rat lens was used; from tissue; host or cells: rat lens (crude homogenate; in later tests the 3,000 rpm supernatant)
# Protocol: A homogenate of rat lens was used and the activity of aldose reductase was measured by the method of Kinoshita, et. al. (Kinoshita J. H., et al, Metabolism, 28, 462-469, (1979)).
# as §2, §1
# A homogenate of rat lens was centrifuged for four minutes at 3,000 rpm under cooling, the supernatant was collected as an enzyme solution, and the inhibitory action of PQQ·H2 against aldose reductase was measured in the same way as in Test Example 4.
# An enzyme solution was prepared from rat lens in the same manner as in Test Example 10, and the inhibitory action of PQQ·3Me against rat lens aldose reductase was measured in the same way as in Test Example 4.
# [7] = PQQ 0.25 mg/egg × 1, HC 0.12 mg/egg, 48 hours after HC
# [8] = PQQ 0.5 mg/egg × 1, HC 0.12 mg/egg, 48 hours after HC
# [9] = PQQ 0.5 mg/egg × 2, HC 0.12 mg/egg, 48 hours after HC
# [10] = PQQ 1.0 mg/egg × 1, HC 0.12 mg/egg, 48 hours after HC
# [11] = inhibitor 10^-4 M/reaction soln.
# [12] = inhibitor 10^-5 M/reaction soln.
# [13] = inhibitor 10^-6 M/reaction soln.
# [14] = inhibitor 10^-7 M/reaction soln.
compound,measurement,setting,value
"O=C(O)c1cc(C(=O)O)c2c(n1)C(=O)C(=O)c1cc(C(=O)O)[nH]c1-2 [PQQ, pyrroloquinoline quinone]",effect on hydrocortisone-induced egg cataract,[1]; HC 0.12 mg on 15th day of incubation,evidently showed an effect of curing cataract
same,cataract estimation: number at Grade I,[1]; [7],2/8
same,cataract estimation: number at Grade III,[1]; [7],4/8
same,cataract estimation: number at Grade IV,[1]; [7],2/8
same,cataract estimation: number at Grade I,[1]; [8],2/10
same,cataract estimation: number at Grade III,[1]; [8],8/10
same,cataract estimation: number at Grade II,[1]; [9],8/10
same,cataract estimation: number at Grade III,[1]; [9],2/10
same,cataract estimation: number at Grade I,[1]; [10],2/6
same,cataract estimation: number at Grade II,[1]; [10],2/6
same,cataract estimation: number at Grade III,[1]; [10],2/6
same,concentration inhibiting the activity by 100%,[2],10^-4 M
same,IC50,[2],5 µM
same,Inhibition Rate,[2]; [11],100%
same,Inhibition Rate,[2]; [12],82.1%
same,Inhibition Rate,[2]; [13],13.9%
same,Inhibition Rate,[2]; [14],0%
same,Inhibition Rate,[2]; inhibitor 10^-8 M/reaction soln.,0%
same,IC50,[3],0.3 µM
same,IC100,[3],1 µM
same,inhibition at 10 µM,[3]; read-out: Inhibition Rate,100%
same,inhibition at 1 µM,[3]; read-out: Inhibition Rate,100%
same,inhibition at 0.1 µM,[3]; read-out: Inhibition Rate,35.9%
same,inhibition at 0.01 µM,"[3]; inhibitor 10^-8 M/reaction soln., read-out: Inhibition Rate",0%
same,cataract estimation: number at Grade A^-,[4]; 20 mg/Kg i.p. once a day,4/4
same,cataract estimation: number at Grade A^0,[4]; 20 mg/Kg i.p. once a day,2/2
same,cataract estimation: number at Grade A^-,[4]; 30 mg/Kg p.o. once a day,6/6
same,cataract estimation: number at Grade A^0,[4]; 30 mg/Kg p.o. once a day,4/4
same,nebula formation,"[4]; 50%-galactose feed for seven days, both p.o. and i.p.",no such nebula formation was observed at all
same,change of cataract grade versus 50%-galactose feed group,[4]; 50%-galactose feed over ten days,improvement by two grades
PQQ dimethyl ethyl ester [PQQ.2Me.Et],concentration inhibiting the activity by 100%,[5]; human placenta,2.5 µM
same,IC50,[5]; human placenta enzyme,0.42 µM
same,Inhibition Rate,[5]; inhibitor 1.25 × 10^-6 M/reaction soln.,97.1%
same,Inhibition Rate,[5]; inhibitor 2 × 10^-7 M/reaction soln.,17.6%
same,Inhibition Rate,[5]; inhibitor 2.5 × 10^-6 M/reaction soln.,100%
same,Inhibition Rate,[5]; inhibitor 3 × 10^-7 M/reaction soln.,29.3%
same,Inhibition Rate,[5]; inhibitor 5 × 10^-7 M/reaction soln.,59.0%
same,Inhibition Rate,[5]; [13],91.2%
same,Inhibition Rate,[5]; [14],0%
"O=C(O)c1cc(C(=O)O)c2c(n1)c(O)c(O)c1cc(C(=O)O)[nH]c12 [PQQ.H2, PQQ reduced form]",concentration inhibiting the activity by 100%,[2],6e-05 M
same,IC50,[2],6 µM
same,Inhibition Rate,[2]; inhibitor 2 × 10^-5 M/reaction soln.,68.4%
same,Inhibition Rate,[2]; inhibitor 4 × 10^-5 M/reaction soln.,92.8%
same,Inhibition Rate,[2]; inhibitor 6 × 10^-5 M/reaction soln.,100%
same,Inhibition Rate,[2]; inhibitor 8 × 10^-5 M/reaction soln.,100%
same,Inhibition Rate,[2]; [11],100%
same,Inhibition Rate,[2]; [12],62.1%
same,Inhibition Rate,[2]; [13],31.8%
same,Inhibition Rate,[2]; [14],0%
same,IC50,[3],5 µM
same,IC100,[3],8 µM
same,inhibition at 4 µM,"[3]; inhibitor 4 × 10^-6 M/reaction soln., read-out: Inhibition Rate",27.8%
same,inhibition at 6 µM,"[3]; inhibitor 6 × 10^-6 M/reaction soln., read-out: Inhibition Rate",89.9%
same,inhibition at 8 µM,"[3]; inhibitor 8 × 10^-6 M/reaction soln., read-out: Inhibition Rate",100%
same,inhibition at 100 µM,"[3]; inhibitor 10^-4 M/reaction soln., read-out: Inhibition Rate",100%
same,inhibition at 10 µM,[3]; read-out: Inhibition Rate,100%
same,inhibition at 1 µM,[3]; read-out: Inhibition Rate,0%
same,inhibition at 0.1 µM,[3]; read-out: Inhibition Rate,0%
same,inhibition at 20 µM,"[6]; inhibitor 2 × 10^-5 M/reaction soln., read-out: Inhibition Rate",100%
same,inhibition at 10 µM,"[6]; inhibitor 10^-5 M/reaction soln., read-out: Inhibition Rate",59.5%
same,inhibition at 1 µM,"[6]; inhibitor 10^-6 M/reaction soln., read-out: Inhibition Rate",15.1%
same,Inhibition Rate,[6]; inhibitor concentration not printed (first line of Table 11),0%
same,IC50,"[6]; rat lens homogenate, substrate dl-glyceraldehyde",8.5 µM
same,IC100,"[6]; rat lens, read-out: concentration inhibiting the activity by 100%",20 µM
